System: rabbit skeletal myofibrils (approximately 90% fast fibers)
Assay: Activation of fast skeletal myofibrils (PUMA coupled-enzyme ATPase assay at pCa25)
Format: biochemical
Settings: concentration at which the compound increased the enzymatic activity by 40%; calcium at pCa25; PM12 buffer pH 6.8
Method in brief: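 In pH 6.8 PM12 buffer (12 mM Pipes, 2 mM MgCl2, 1 mM DTT), ADP from myosin regenerated via pyruvate kinase/lactate dehydrogenase, with absorbance change at 340 nm from NADH oxidation as read-out. Calcium set at pCa25; Triton-washed rabbit skeletal myofibrils (about 90% fast fibres) used.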

Row | SMILES | Mean AC1.4
1 | Cc1nc(NC[C@]2(c3ncccc3F)C[C@H](F)C2)ncc1-c1ccc(C#N)cc1 [4-[2-({[3-fluoro-1-(3-fluoro(2-pyridyl))cyclobutyl]methyl}amino)-4-methylpyrimidin-5-yl]benzenecarbonitrile] | D (D=>20 uM)
2 | NC(=O)c1cc(-c2cnc(NCC3(c4ncccc4F)CCC3)nc2)ccn1 [4-[2-({[(3-fluoro-2-pyridyl)cyclobutyl]methyl}amino)pyrimidin-5-yl]pyridine-2-carboxamide] | B (B=1-10 uM)
3 | NC(=O)c1ccc(F)cc1-c1cnc(NC[C@]2(c3ncccc3F)C[C@H](F)C2)nc1 [4-fluoro-2-[2-({[3-fluoro-1-(3-fluoro(2-pyridyl))cyclobutyl]methyl}amino)pyrimidin-5-yl]benzamide] | B (B=1-10 uM)
4 | CC(C)(Nc1ncc(-c2cc(C(N)=O)ccc2F)cn1)c1ncccc1F [4-fluoro-3-(2-{[1-(3-fluoro(2-pyridyl))-isopropyl]amino}pyrimidin-5-yl)benzamide] | B (B=1-10 uM)
5 | COc1cccnc1C(C)(C)Nc1ncc(-c2cc(C(N)=O)ccc2F)cn1 [4-fluoro-3-(2-{[1-(3-methoxy(2-pyridyl))-isopropyl]amino}pyrimidin-5-yl)benzamide] | C (C=10-20 uM)
6 | COc1cccnc1C(C)(C)Nc1ncc(-c2cc(C#N)ccc2F)cn1 [4-fluoro-3-(2-{[1-(3-methoxy(2-pyridyl))-isopropyl]amino}pyrimidin-5-yl)benzenecarbonitrile] | D (D=>20 uM)
7 | Cc1cccnc1C(C)(C)Nc1ncc(-c2cc(C(N)=O)ccc2F)cn1 [4-fluoro-3-(2-{[1-methyl-1-(3-methyl(2-pyridyl))ethyl]amino}pyrimidin-5-yl)benzamide] | B (B=1-10 uM)
8 | CC(C)(CNc1ncc(-c2cc(C(N)=O)ccc2F)cn1)c1ncccc1F [4-fluoro-3-(2-{[2-(3-fluoro(2-pyridyl))-2-methylpropyl]amino}pyrimidin-5-yl)benzamide] | B (B=1-10 uM)
9 | NC(=O)c1ccc(F)c(-c2cnc(NCC3(c4ccccn4)CCC3)nc2)c1 [4-fluoro-3-(2-{[(2-pyridylcyclobutyl]methyl]amino}pyrimidin-5-yl)benzamide] | A (A=<1 uM)
10 | NC(=O)c1ccc(F)c(-c2cnc(NC3(c4ncccc4F)CCC3)nc2)c1 [4-fluoro-3-(2-{[(3-fluoro(2-pyridyl))cyclobutyl]amino}pyrimidin-5-yl)benzamide] | A (A=<1 uM)
11 | NC(=O)c1ccc(F)c(-c2cnc(NC3(c4ccc(F)cc4)CCC3)nc2)c1 [4-fluoro-3-(2-{[(4-fluorophenyl)cyclobutyl]amino}pyrimidin-5-yl)benzamide] | A (A=<1 uM)
12 | NC(=O)c1ccc(F)c(-c2cnc(NC[C@]3(c4ncccc4F)C[C@H](F)C3)nc2)c1O [4-fluoro-3-[2-({[3-fluoro)-1-(3-fluoro(2-pyridyl))cyclobutyl]methyl}amino)pyrimidin-5-yl]-2-hydroxybenzamide] | A (A=<1 uM)
13 | NC(=O)c1ccc(F)c(-c2cnc(NCC3(c4ncccc4F)CC(F)C3)nc2)c1 (stereo not shown) [4-fluoro-3-[2-({[3-fluoro-1-(3-fluoro(2-pyridyl))cyclobutyl]methyl}amino)pyrimidin-5-yl]benzamide] | A (A=<1 uM)
14 | NC(=O)c1ccc(F)c(-c2cnc(NCC3(c4ncccc4F)CCC3)nc2)c1 [4-fluoro-3-[2-({[(3-fluoro(2-pyridyl))cyclobutyl]methyl}amino)pyrimidin-5-yl]benzamide] | A (A=<1 uM)
15 | CC(C)(Nc1ncc(-c2cnnc(C(N)=O)c2)cn1)c1ncccc1Cl [5-(2-{[1-(3-chloro(2-pyridyl))-isopropyl]amino)pyrimidin-5-yl)pyridazine-3-carboxamide] | B (B=1-10 uM)
16 | CC(C)(Nc1ncc(-c2nnc(C(N)=O)s2)cn1)c1ncccc1Cl [5-(2-{[1-(3-chloro(2-pyridyl))-isopropyl]amino}pyrimidin-5-yl)-1,3,4-thiadiazole-2-carboxamide] | D (D=>20 uM)
17 | CC(C)(Nc1ncc(-c2cnc(C(N)=O)s2)cn1)c1ncccc1Cl [5-(2-{[1-(3-chloro(2-pyridyl))-isopropyl]amino}pyrimidin-5-yl)-1,3-thiazole-2-carboxamide] | B (B=1-10 uM)
18 | COc1ncc(-c2cnc(NC(C)(C)c3ncccc3Cl)nc2)cc1C#N [5-(2-{[1-(3-chloro(2-pyridyl))-isopropyl]amino}pyrimidin-5-yl)-2-methoxypyridine-3-carbonitrile] | D (D=>20 uM)
19 | COc1ncc(-c2cnc(NC(C)(C)c3ncccc3Cl)nc2)cc1C(N)=O [5-(2-{[1-(3-chloro(2-pyridyl))-isopropyl]amino}pyrimidin-5-yl)-2-methoxypyridine-3-carboxamide] | B (B=1-10 uM)
20 | CC(C)(Nc1ncc(-c2c[nH]c(=O)c(C(N)=O)c2)cn1)c1ncccc1Cl [5-(2-{[1-(3-chloro(2-pyridyl))-isopropyl]amino}pyrimidin-5-yl)-2-oxohydropyridine-3-carboxamide] | B (B=1-10 uM)
21 | CC(C)(Nc1ncc(-c2cc(C(N)=O)no2)cn1)c1ncccc1Cl [5-(2-{[1-(3-chloro(2-pyridyl))-isopropyl]amino}pyrimidin-5-yl)isoxazole-3-carboxamide] | B (B=1-10 uM)
22 | CC(C)(Nc1ncc(-c2cc(C(N)=O)n[nH]2)cn1)c1ncccc1Cl [5-(2-{[1-(3-chloro(2-pyridyl))-isopropyl]amino}pyrimidin-5-yl)pyrazole-3-carboxamide] | C (C=10-20 uM)
23 | CC(C)(Nc1ncc(-c2cncc(C(N)=O)c2)cn1)c1ncccc1Cl [5-(2-{[1-(3-chloro(2-pyridyl))-isopropyl]amino}pyrimidin-5-yl)pyridine-3-carboxamide] | B (B=1-10 uM)
24 | CC(C)(Nc1ncc(-c2ccc(C(N)=O)s2)cn1)c1ncccc1Cl [5-(2-{[1-(3-chloro(2-pyridyl))-isopropyl]amino}pyrimidin-5-yl)thiophene-2-carboxamide] | B (B=1-10 uM)

Next, values leading:

Row | Mean AC1.4 | SMILES
25 | D (D=>20 uM) | CC(C)(Nc1ncc(-c2ccc(C(=O)O)s2)cn1)c1ncccc1Cl [5-(2-{[1-(3-chloro(2-pyridyl))-isopropyl]amino}pyrimidin-5-yl)thiophene-2-carboxylic acid]
26 | D (D=>20 uM) | Cn1nc(C(N)=O)cc1-c1cnc(NC(C)(C)c2ncccc2Cl)nc1 [5-(2-{[1-(3-chloro(2-pyridyl))-isopropyl}amino}pyrimidin-5-yl)-1-methylpyrazole-3-carboxamide]
27 | B (B=1-10 uM) | CC(C)(CNc1ncc(-c2ccc3[nH]c(=O)[nH]c3c2)cn1)c1ccc(F)cc1 [5-(2-{[2-(4-fluorophenyl)-2-methylpropyl]amino}pyrimidin-5-yl)-3-hydrobenzimidazol-2-one]
28 | B (B=1-10 uM) | CC(C)(CNc1ncc(-c2cncc(C#N)c2)cn1)c1ccc(F)cc1 [5-(2-{[2-(4-fluorophenyl)-2-methylpropyl]amino}pyrimidin-5-yl)pyridine-3-carbonitrile]
29 | B (B=1-10 uM) | CC(C)(CNc1ncc(-c2cncc(C(N)=O)c2)cn1)c1ccc(F)cc1 [5-(2-{[2-(4-fluorophenyl)-2-methylpropyl]amino}pyrimidin-5-yl)pyridine-3-carboxamide]
30 | B (B=1-10 uM) | N#Cc1n[nH]c2ccc(-c3cnc(NC4(c5ncccc5F)CCC4)nc3)cc12 [5-(2-{[(3-fluoro-2-pyridyl)cyclobutyl]amino}pyrimidin-5-yl)-1H-indazole-3-carbonitrile]
31 | A (A=<1 uM) | NC(=O)c1n[nH]c2ccc(-c3cnc(NC4(c5ncccc5F)CCC4)nc3)cc12 [5-(2-{[(3-fluoro-2-pyridyl)cyclobutyl]amino}pyrimidin-5-yl)-1H-indazole-3-carboxamide]
32 | C (C=10-20 uM) | NC(=O)c1nc2cnc(NCC3(c4ncccc4F)CCC3)nc2s1 [5-({[(3-fluoro-2-pyridyl)cyclobutyl]methyl}amino)-1,3-thiazolo[5,4-d]pyrimidine-2-carboxamide]
33 | D (D=>20 uM) | O=C(O)c1nc2cnc(NCC3(c4ncccc4F)CCC3)nc2s1 [5-({[(3-fluoro-2-pyridyl)cyclobutyl]methyl}amino)-1,3-thiazolo[5,4-d]pyrimidine-2-carboxylic acid]
34 | D (D=>20 uM) | CC(C)(CNc1ncc(Br)cn1)c1ccc(F)cc1 [5-Bromo-N-(2-(4-fluorophenyl)-2-methylpropyl)pyrimidin-2-amine]
35 | A (A=<1 uM) | NC(=O)c1cc(-c2cnc(NC[C@]3(c4ncccc4F)C[C@H](F)C3)nc2)ccc1O [5-[2-({[3-fluoro-1-(3-fluoro(2-pyridyl))cyclobutyl]methyl)amino)pyrimidin-5-yl]-2-hydroxybenzamide]
36 | D (D=>20 uM) | O=c1[nH]cc(-c2cnc(NC[C@]3(c4ncccc4F)C[C@H](F)C3)nc2)c(=O)[nH]1 [5-[2-({[3-fluoro-1-(3-fluoro(2-pyridyl))cyclobutyl]methyl}amino)pyrimidin-5-yl]-1,3-dihydropyrimidine-2,4-dione]
37 | D (D=>20 uM) | Oc1ccc(-c2cnc(NC[C@]3(c4ncccc4F)C[C@H](F)C3)nc2)cn1 [5-[2-({[3-fluoro-1-(3-fluoro(2-pyridyl))cyclobutyl]methyl}amino)pyrimidin-5-yl]pyridin-2-ol]
38 | D (D=>20 uM) | Oc1ncc(-c2cnc(NC[C@]3(c4ncccc4F)C[C@H](F)C3)nc2)cn1 [5-[2-({[3-fluoro-1-(3-fluoro(2-pyridyl))cyclobutyl]methyl}amino)pyrimidin-5-yl]pyrimidin-2-ol]
39 | C (C=10-20 uM) | Nc1ccnn1C(=O)c1cnc(NCC2(c3ncccc3F)CCC2)nc1 [5-aminopyrazolyl 2-({[(3-fluoro(2-pyridyl))cyclobutyl]methyl}amino) pyrimidin-5-yl ketone]
40 | B (B=1-10 uM) | Oc1cnc(-c2cnc(NC[C@]3(c4ncccc4F)C[C@H](F)C3)nc2)c(F)c1 [5-fluoro-6-[2-(([3-fluoro-1-(3-fluoro(2-pyridyl))cyclobutyl]methyl}amino)pyrimidin-5-yl]pyridin-3-ol]
